Reference: the Deep4Chem optical property database
Several values for one entry are separate records, joined by “and”; a condition that tells them apart may be missing. Equal entries are not always repeated. Each block holds one compound with its values, some of them ahead of it.

Experiment: solvent given as SMILES

absorption maximum (in CC#N): 537 nm | absorption maximum (in CCO): 531 nm | absorption maximum (in ClCCl): 539 nm | absorption maximum (in O): 522 nm
SMILES: C=CCNc1ccc2ccc3oc4cc(=O)ccc-4nc3c2c1

absorption maximum (in CC1CCCCC1): 386 nm | absorption maximum (in CC#N): 386 nm
SMILES: C(=C\c1c2ccccc2cc2ccccc12)/c1cccc2ccccc12

SMILES: N#Cc1c(-n2c3ccccc3c3ccccc32)cc(N2c3ccccc3C(c3ccccc3)(c3ccccc3)c3ccccc32)cc1-n1c2ccccc2c2ccccc21
absorption maximum (in Cc1ccccc1): 368 nm

SMILES: CC1=CC(C)=[N+]2C1=C(c1ccc(N(C)C)cc1)c1c(C)cc(C)n1[B-]2(F)F
absorption maximum (in C1CCOC1): 499 nm | absorption maximum (in CC#N): 496 nm | absorption maximum (in CC(=O)C(C)(C)C): 496 nm | absorption maximum (in CC(C)=O): 496 nm | absorption maximum (in CCCCCC): 500 nm | absorption maximum (in CCOC(C)=O): 498 nm | absorption maximum (in CO): 500 nm and 492 nm

absorption maximum (in ClCCl): 301 nm
SMILES: N#Cc1ccc(-n2c(-c3ccc(-c4ccc(-n5c6ccccc6c6ccccc65)cc4)s3)nc3c4ccccc4c4ccccc4c32)c2ccccc12

SMILES: CCC1=C(C)C2=Cc3cc(I)cn3[B-](F)(F)[N+]2=C1C
absorption maximum (in C1CCCCC1): 528 nm | absorption maximum (in CC(C)=O): 509.5 nm | absorption maximum (in CCO): 514 nm | absorption maximum (in CCOC(C)=O): 513 nm | absorption maximum (in CO): 511.5 nm | absorption maximum (in OCC(F)(F)F): 504 nm

absorption maximum (in O): 434 nm
SMILES: CC[n+]1c(-c2ccccc2)c2cc(NC(N)=O)ccc2c2ccc(NC(N)=O)cc21

SMILES: [C-]#[N+]c1ccc(-c2ccc(N)cc2)cc1
absorption maximum (in C1CCCCC1): 302 nm | absorption maximum (in C1CCOC1): 319 nm | absorption maximum (in C1COCCO1): 315 nm | absorption maximum (in CC#N): 310 nm | absorption maximum (in CC(C)=O): 329 nm | absorption maximum (in CCCCCC): 301 nm | absorption maximum (in CCOC(C)=O): 315 nm | absorption maximum (in CN(C)C=O): 314 nm | absorption maximum (in CO): 308 nm | absorption maximum (in CS(C)=O): 318 nm | absorption maximum (in Cc1ccccc1): 310 nm | absorption maximum (in ClC(Cl)Cl): 305 nm | absorption maximum (in ClCCl): 307 nm | absorption maximum (in O): 298 nm | absorption maximum (in c1ccncc1): 325 nm

absorption maximum (in ClCCl): 355 nm
SMILES: CC(C)(C)c1ccc2c(c1)c1cc(C(C)(C)C)ccc1n2-c1ccc(C#Cc2ccc3c4ccc(C#Cc5ccc(C=C(C#N)C#N)cc5)cc4n(-c4ccc(C(F)(F)F)cc4)c3c2)cc1

absorption maximum (in CC#N): 317 nm
SMILES: C[n+]1ccc(/C=C/c2cc[n+](C)cc2)cc1

SMILES: COc1ccc(/C=C/C2=[O+][B-](F)(F)OC(/C=C/c3ccc(OC)c4ccccc34)=C2c2ccccc2)c2ccccc12
absorption maximum (in CC#N): 550 nm | absorption maximum (in CC(C)=O): 549 nm | absorption maximum (in CCOC(C)=O): 542 nm | absorption maximum (in CCOCC): 540 nm | absorption maximum (in ClC(Cl)(Cl)Cl): 542 nm | absorption maximum (in ClCCl): 556 nm

absorption maximum (in ClCCl): 328 nm
SMILES: COC(=O)C1=C(C(=O)OC)C2(c3ccccc3-c3c(Br)cc(Br)cc32)C2(/C=C/c3ccccc3)c3cc(OC)c(OC)cc3CCN12 (centres undefined)

absorption maximum (in CC#N): 442 nm | absorption maximum (in CCCCCC): 434 nm | absorption maximum (in CCCCOCCCC): 437 nm | absorption maximum (in CCOC(C)=O): 439 nm | absorption maximum (in CN(C)C=O): 445 nm
SMILES: O=c1c2ccccc2n2c3ccc(-c4ccccc4)cc3c(=O)c3cccc1c32

absorption maximum (in ClCCl): 520 nm
SMILES: Clc1nnc(O/N=C/c2ccc(N(c3ccc(Br)cc3)c3ccc(Br)cc3)cc2)nn1

absorption maximum (in C1CCCCC1): 340 nm | absorption maximum (in CO): 345 nm
SMILES: Cc1ccc(/C=C(\c2ccccc2)c2nc3ccccc3s2)cc1

absorption maximum (in C1CCCCC1): 360 nm
SMILES: C1=Cc2ccc3ccccc3c2NB1c1ccccc1

SMILES: CCn1c2ccccc2c2cc(/C=C3\C(=O)c4ccccc4S3(=O)=O)ccc21
absorption maximum (in C1CCOC1): 446 nm | absorption maximum (in C1COCCO1): 443 nm | absorption maximum (in CC#N): 442 nm | absorption maximum (in CC(C)=O): 442 nm | absorption maximum (in CCOC(C)=O): 441 nm | absorption maximum (in CN(C)C=O): 449 nm | absorption maximum (in CO): 446 nm | absorption maximum (in CS(C)=O): 454 nm | absorption maximum (in Cc1ccccc1): 453 nm | absorption maximum (in ClC(Cl)Cl): 454 nm | absorption maximum (in ClCCl): 448 nm

absorption maximum (in CC#N): 694 nm | absorption maximum (in CS(C)=O): 705 nm | absorption maximum (in ClC(Cl)Cl): 703 nm
SMILES: C#CCn1c2ccccc2c2cc(/C=C/C3=[N+]4C(=C(c5ccc(I)cc5)c5c(C)c(Cl)c(/C=C/c6ccc7c(c6)c6ccccc6n7CC#C)n5[B-]4(F)F)C(C)=C3Cl)ccc21

SMILES: CN(C)c1ccccc1
absorption maximum (in C1CCCCC1): 293.94 nm

absorption maximum (in C1CCOC1): 293.4 nm | absorption maximum (in CC#N): 285 nm | absorption maximum (in CCCCCC): 280.5 nm | absorption maximum (in CCOC(C)=O): 282.5 nm | absorption maximum (in CN(C)C=O): 285.3 nm | absorption maximum (in CO): 271.5 nm | absorption maximum (in CS(C)=O): 283.1 nm | absorption maximum (in ClC(Cl)Cl): 278 nm
SMILES: Cc1cc(C)cc(NC(=O)c2sc(Br)nc2C)c1

absorption maximum (in ClCCl): 327 nm
SMILES: CCCCCCOc1ccc2c(c1)-c1cc3c(cc1[Si]2(C)C)-c1ccccc1[Si]3(C)C

absorption maximum (in C1CCCCC1): 364 nm
SMILES: CCCC1(CCC)c2cc(-c3ccco3)ccc2-c2ccc(-c3ccco3)cc21

absorption maximum (in C1CCOC1): 362 nm | absorption maximum (in CO): 366 nm
SMILES: CCOC(=O)C1=CN(c2ccccc2)C=C(C(=O)OCC)C1c1ccccc1

absorption maximum (in C1COCCO1): 405 nm
SMILES: COC(=O)c1ccc(/C=C2\N=C(c3ccc([N+](=O)[O-])cc3)NC2=O)cc1

absorption maximum (in CC#N): 451 nm
SMILES: C[C@]12SC(=O)C=C1c1nc(-c3ccc(Cl)cc3)[nH]c1C1=CC(=O)S[C@@]12C

absorption maximum (in C1CCOC1): 404 nm
SMILES: Clc1cnc2nn3ccccc3c2n1

absorption maximum (in CC#N): 576 nm | absorption maximum (in CCO): 570 nm | absorption maximum (in ClCCl): 588 nm | absorption maximum (in O): 556 nm
SMILES: C=CCNc1ccc2ccc3oc4cc(=[N+]5CCCC5)ccc-4nc3c2c1

absorption maximum (in CO): 336 nm | absorption maximum (in O): 350 nm
SMILES: O=[N+]([O-])c1ccc[nH]1

absorption maximum (in CS(C)=O): 404 nm
SMILES: N#Cc1c(/C=C/c2ccc(N(c3ccccc3)c3ccccc3)cc2)cc(-c2cccs2)cc1N1CCCCC1

absorption maximum (in C1CCCCC1): 410.54 nm
SMILES: CC(C)c1cc(C(C)C)c(B2c3cc(-n4c5ccc(C(C)(C)C)cc5c5cc(C(C)(C)C)ccc54)ccc3N(c3ccccc3)c3ccc(-n4c5ccc(C(C)(C)C)cc5c5cc(C(C)(C)C)ccc54)cc32)c(C(C)C)c1

absorption maximum (in ClCCl): 396 nm
SMILES: Clc1cc(Cl)c(B2c3ccccc3Nc3ccccc32)c(Cl)c1

absorption maximum (in CO): 751 nm | absorption maximum (in O): 745 nm
SMILES: CC[N+]1=C(/C=C/C=C/C=C/C=C2/N(CCCCCC(=O)O)c3ccccc3C2(C)C)C(C)(C)c2cc(S(=O)(=O)[O-])ccc21

absorption maximum (in CO): 621 nm | absorption maximum (in CS(C)=O): 626 nm
SMILES: CCC1=C(C)C2=Cc3c4ccccc4c4n3[B-](c3cc[n+](C)cc3)(Oc3ccccc3-4)[N+]2=C1C (centres undefined)

SMILES: Cc1ccc(-n2c(-c3cccc4cc[nH]c34)nc3c4ccccc4c4ccccc4c32)cc1
absorption maximum (in Cc1ccccc1): 354 nm

SMILES: CCn1c2ccccc2c2cc(-c3cc(-c4ccc5c(c4)c4ccccc4n5CC)nc(C#N)n3)ccc21
absorption maximum (in C1CCOC1): 381 nm | absorption maximum (in CCOC(C)=O): 378 nm | absorption maximum (in CN(C)C=O): 387 nm | absorption maximum (in Cc1ccccc1): 380 nm | absorption maximum (in ClCCl): 381 nm

absorption maximum (in CC#N): 478 nm
SMILES: COC(=O)/C=C/c1sc(-c2ccc(N(C)C)s2)c(-c2cn(C)c3ccccc23)c1O

absorption maximum (in ClCCl): 357 nm
SMILES: CCn1c2ccccc2c2c(N(c3ccccc3)c3ccccc3)cccc21

absorption maximum (in CO): 500 nm
SMILES: CCN(CC)c1ccc(C2=C3C(C)=CC(C)=[N+]3[B-](F)(F)n3c(C)cc(C)c32)cc1

absorption maximum (in O): 462 nm
SMILES: CC[n+]1c(-c2ccccc2)c2cc(-n3cccc3)ccc2c2ccc(N)cc21

absorption maximum (in c1ccccc1): 406 nm
SMILES: O=c1oc2ccc3ccc(O)cc3c2nc1-c1ccccc1
